Test results reported in patent publication US9072741B2, “Methods of treating liver fibrosis and pre-cirrhosis with epidermal growth factor receptor inhibitors” (The General Hospital Corporation, priority 2009, dated 2015).

Assays:
Type in all cases: in vivo, male Wistar rats
[1] = system: DEN-induced cirrhosis and HCC; experiment: DEN-induced rat model of cirrhosis and HCC: tumor formation (tumor nodules) and gross liver appearance; conditions: for decrease of tumor formation: vs vehicle
Method: FIG. 1A is a bar graph depicting the number of tumor nodules in male Wistar rats receiving weekly intraperitoneal injections of 50 mg/kg diethylnitrosamine (DEN) for 18 weeks and vehicle only (n=16), 0.5 mg/kg erlotinib (Erl 0.5; n=8), or 2 mg/kg erlotinib (Erl 2; n=8) during weeks 12-18.
FIG. 5A is a bar graph depicting the number of tumor nodules in male Wistar rats receiving weekly intraperitoneal injections of 50 mg/kg DEN for 18 weeks and vehicle only (n=8) or 18 mg/kg lapatinib (n=8) during weeks 12-18. *, significant.
Given the lack of successful treatment options for HCC, chemoprevention in high-risk patients has been proposed as an alternative strategy (Llovet et al., Lancet 362:1907-17, 2003). Even though EGFR inhibition is not effective for chemotherapy, the data presented herein indicate that it is likely to be a good chemoprevention strategy. The diethylnitrosamine (DEN)-induced rat model of sequential cirrhosis and HCC has emerged as a promising tool for not only studying the course of chronic liver disease but also for testing putative chemopreventive agents as it better resembles disease progression in humans (Lee et al., Korean J Hepatol 13:70-80, 2007; Schiffer et al., Hepatology 41:307-14, 2005). In this model, DEN induces liver cirrhosis after 12 weeks and HCC at approximately 18 weeks allowing ample opportunity for preventative intervention.
(§1) Erlotinib is a drug used to treat non-small cell lung cancer and pancreatic cancer. Erlotinib specifically targets the EGFR, which is highly expressed and occasionally mutated in various forms of cancer, by binding to the adenosine triphosphate (ATP) binding site of the receptor (Raymond et al., Drugs 60 Suppl 1:15-23, 2000). To investigate erlotinib as a chemoprevention strategy for liver fibrogenesis, male Wistar rats were given a weekly intraperitoneal injection of 50 mg/kg DEN to induce cirrhosis and HCC (Lee et al., Korean J Hepatol 13:70-80, 2007). Erlotinib was administered by intraperitoneal injection daily (5× a week) during weeks 12-18 at a dose of 2 mg/kg, which is equivalent to chemotherapeutic dosing regimens in humans. […] In a separate study, the dose of erlotinib was lowered to 0.5 mg/kg.
(§2) Repeated injury to the liver causes damage to hepatocytes and activates resident macrophages called Kupffer cells. Damaged hepatocytes and activated Kupffer cells secrete cytokines and growth factors into the liver milieu, which activate hepatic stellate cells (Friedman, Gastroenterology 134:1655-69, 2008). Normally, hepatic stellate cells are quiescent and store vitamin A and fat. Upon activation, they differentiate into a myofibroblast-phenotype and express α-smooth muscle actin (α-SMA) (Friedman, Gastroenterology 134:1655-69, 2008). Activated hepatic stellate cells deposit fibrous collagen into the space of Disse acutely causing fibrosis and chronically causing cirrhosis. The degree of liver disease (fibrosis versus cirrhosis) is pathologically assessed through trichrome staining of collagen by the method of Ishak (Mod Pathol 7:690-713, 1994).
(§3) To investigate lapatinib as a chemoprevention strategy for liver fibrogenesis, male Wistar rats were given a weekly intraperitoneal injection of 50 mg/kg DEN to induce cirrhosis and HCC (Lee et al., Korean J Hepatol 13:70-80, 2007). Lapatinib was administered by intraperitoneal injection daily (5× a week) during weeks 12-18 at a dose of 18 mg/kg.

[2] = system: activated hepatic stellate cells; experiment: α-SMA staining of liver sections for activated hepatic stellate cells in DEN-treated rats
Method: FIGS. 2B-2G are a series of six panels showing representative pictures of Masson's trichome (B-D) and α-SMA stains (E-G) of liver sections from rats receiving weekly intraperitoneal injections of DEN (50 mg/kg) for 18 weeks and (B and E) vehicle only, (C and F) 0.5 mg/kg erlotinib (Erl 0.5), or (D and G) 2 mg/kg erlotinib (Erl 2) during weeks 12-18.
FIGS. 6B-6E are a series of four panels showing representative pictures of Masson's trichrome (B-C) and α-SMA stains (D-E) of liver sections from rats receiving weekly intraperitoneal injections of DEN (50 mg/kg) for 18 weeks and (B and D) vehicle only or (C and E) 18 mg/kg lapatinib during weeks 12-18.
as §2, with “Activated hepatic stellate cells deposit fibrous collagen into the space of Disse acutely causing fibrosis and chronically causing cirrhosis.” left out, “1994). […]” for “1994).”

[3] = system: DEN-induced liver fibrosis/cirrhosis; experiment: DEN-induced rat model: fibrosis/cirrhosis by Ishak score of Masson's trichrome stained liver sections; conditions: for mode of Ishak score: vehicle mode 6; for range of Ishak score: vehicle range 2-6
Method: FIG. 2A is a bar graph depicting the Ishak score of male Wistar rats receiving weekly intraperitoneal injections of DEN (50 mg/kg) for 18 weeks and vehicle only (n=16), 0.5 mg/kg erlotinib (Erl 0.5; n=8), or 2 mg/kg erlotinib (Erl 2; n=8) during weeks 12-18.
FIG. 6A is a bar graph depicting the Ishak score of male Wistar rats receiving weekly intraperitoneal injections of DEN (50 mg/kg) for 18 weeks and vehicle only (n=8) or 18 mg/kg lapatinib (n=8) during weeks 12-18. *, significant.
as §1, §2
In early stages of liver fibrosis, collagen deposition is localized around the portal tracts (Ishak score 1 or 2), but it bridges between portal tracts at later stages of fibrosis (Ishak score 3 or 4) and ultimately forms nodules around regenerating hepatocytes during cirrhosis (Ishak score 5 or 6). Although there is some heterogeneity in this model, intraperitoneal administration of DEN causes, on average, an Ishak score 0.8 (range 0-2) fibrosis after 8 weeks, an Ishak score 4.1 (range 3-6) fibrosis/cirrhosis after 12 weeks, and an Ishak score 5.1 (range 4-6) cirrhosis after 18 weeks. Consistent with this, hepatic stellate cell activation increases over time after DEN administration as assessed by α-SMA staining.
Remarkably, erlotinib inhibited fibrogenesis. […] The range for 16 vehicle animals was 2-6 with a mode of 6 as illustrated in FIG. 2B. […] To further examine the effects of erlotinib on liver fibrosis, α-SMA staining was performed for activated hepatic stellate cells.
as §3
Similar to erlotinib, lapatinib inhibited fibrogenesis. […] To further examine the effects of lapatinib on liver fibrosis, α-SMA staining was performed for activated hepatic stellate cells.

| Compound | inhibition of tumor formation ([1]; 0.5 mg/kg i.p. daily weeks 12-18, DEN 50 mg/kg weekly for 18 weeks, separate study) [%] | decrease of tumor formation ([1]; 2 mg/kg i.p. daily (5x a week) weeks 12-18, DEN 50 mg/kg weekly for 18 weeks) [%] | gross appearance of livers ([1]; 0.5 and 2 mg/kg weeks 12-18 (FIGS. 1C, 1D) vs vehicle) | activation of hepatic stellate cells (α-SMA staining) ([2]; 0.5 and 2 mg/kg weeks 12-18 vs vehicle) | average Ishak score ([3]; 0.5 mg/kg weeks 12-18, n=8, vehicle 4.9) | mode of Ishak score ([3]; 0.5 mg/kg weeks 12-18) | range of Ishak score ([3]; 0.5 mg/kg weeks 12-18) | average Ishak score ([3]; 2 mg/kg weeks 12-18, n=8, vehicle 4.9) | mode of Ishak score ([3]; 2 mg/kg weeks 12-18) | range of Ishak score ([3]; 2 mg/kg weeks 12-18) | decrease of tumor formation ([1]; 18 mg/kg i.p. daily (5x a week) weeks 12-18, DEN 50 mg/kg weekly for 18 weeks) | gross appearance of livers ([1]; 18 mg/kg weeks 12-18 (FIG. 5C) vs vehicle) | activation of hepatic stellate cells (α-SMA staining) ([2]; 18 mg/kg weeks 12-18 vs vehicle) | average Ishak score ([3]; 18 mg/kg weeks 12-18, n=8, vehicle 5.6) |
| --- | --- | --- | --- | --- | --- | --- | --- | --- | --- | --- | --- | --- | --- | --- |
| C#Cc1cccc(Nc2ncnc3cc(OCCOC)c(OCCOC)cc23)c1 [erlotinib, 4-Quinazolinamine, N-(3-ethynylphenyl)-6,7-bis(2-methoxyethoxy)] | 49 | 75 | not only exhibited less tumors, but also appeared less cirrhotic | dramatically decreased the activation of hepatic stellate cells in a dose-dependent fashion | 4.3 | 4 | 3-6 | 2.6 | 2 | 1-4 | – | – | – | – |
| CS(=O)(=O)CCNCc1ccc(-c2ccc3ncnc(Nc4ccc(OCc5cccc(F)c5)c(Cl)c4)c3c2)o1 [lapatinib, 4-Quinazolinamine, N-(3-chloro-4-((3-fluorophenyl)methoxy)phenyl)-6-(5-(((2-(methylsulfonyl)ethyl)amino)methyl)-2-furanyl)] | – | – | – | – | – | – | – | – | – | – | greater than 50% | not only exhibited less tumors, but also appeared less cirrhotic | dramatically decreased the activation of hepatic stellate cells in a dose-dependent fashion | 4.3 |
